This note sets out measurements from US9796700B2 (Celgene CAR LLC, priority 2013, dated 2017).

SMILES strings stand for the structures. Read-outs that look alike come from different tables or passages of the source.

Usually EC50 stands for the midpoint of the concentration-response curve. As usually defined, the IC50 is the concentration at which inhibition is half-maximal.

Experiment [1] deals with Erk1 (Homo sapiens (Human), UniProt P27361). Briefly: Protein Mass Modification Assay (intact protein MALDI). The experiment is classed as binding. In a few lines:
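Percent covalent modification comes from the intact-protein MALDI centroid mass shift, treated versus control, divided by compound MW. Before analysis, human Erk1 was exposed to compound at 10-fold excess over protein for 60 min at room temperature.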

Experiment [2] concerns ERK1 phosphorylation of its substrate RSK in HT29 cells. Put plainly: pRSK MSD Assay in HT29 cells. In kind it is cell-based. The procedure: The protocol below describes an assay to measure the kinase activity of ERK1 to phosphorylate its substrate, RSK, in the presence of a test compound. This experiment was conducted using a Mesoscale Discovery plate. The day before the assay, HT29 cells were split and plated at 50,000 cells/well in complete growth media. After allowing cells to adhere, the media was removed and replaced with media containing 0.1% FBS and incubated overnight. Blank MDS plates were coated with 25 μl/well RSK capture antibody and incubated at 4° C. overnight. The next day, the media was removed and replaced with 100 μl of media containing a test compound and incubated for 120 minutes at 37° C. The media was removed and replaced with 55 μl of well lysis buffer with protease and phosphatase inhibitors provided in the kit, followed by incubation at 4° C. for 30 minutes. 50 μl of lysate was transferred to a blocked MSD plate, followed by incubation at room temperature for 2 hours under constant shaking. The plate was washed 3 times with MSD wash buffer (cat#R617TX), and 25 μl/well phospho-RSK (pRSK) detection antibody was added with an appropriate Sulfo-tagged anti-species detection antibody diluted in 1% BSA in MSD wash buffer. This mixture was incubated for 1 hour at room temperature under constant shaking. The plate was washed 3 times, and 150 μl 1×MSD read buffer was added, followed by signal detection in an MSD plate reader.

Experiment [3] deals with MEK1 activated ERK1 (Homo sapiens (Human), UniProt P27361). Briefly: Omnia continuous-read kinase assay for potency against MEK1 activated ERK1. In kind it is biochemical. Particulars: MEK1 activated ERK1, WT, ATP at KM. The method in brief: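 Apparent IC50 came from initial reaction slopes (RFU vs time) plotted against log inhibitor with a variable-slope fit. Reactions were started with ERK1 (4 nM final) added to 50 μM ATP, roughly at its appKM, and 10 μM Sox-conjugated ST17 peptide in 20 mM Tris pH 7.5, 5 mM MgCl2. Fluorescence was monitored every 71 seconds.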
MEK1 activated ERK1, sequence (P27361 whole entry): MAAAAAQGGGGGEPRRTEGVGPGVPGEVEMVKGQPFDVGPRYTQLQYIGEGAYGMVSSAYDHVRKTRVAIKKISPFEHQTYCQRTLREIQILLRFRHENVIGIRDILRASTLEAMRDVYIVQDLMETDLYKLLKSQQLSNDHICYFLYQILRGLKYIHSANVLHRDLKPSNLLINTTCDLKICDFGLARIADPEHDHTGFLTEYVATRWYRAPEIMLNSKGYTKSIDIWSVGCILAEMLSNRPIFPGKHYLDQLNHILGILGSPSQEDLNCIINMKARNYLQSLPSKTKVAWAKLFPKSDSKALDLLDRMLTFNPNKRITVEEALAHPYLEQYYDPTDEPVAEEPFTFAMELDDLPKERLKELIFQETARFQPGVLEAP

Setting [4] is: Homo sapiens, HT-29, read-out: ERK1 PRSK MSD HT29 EC50 (nM).
Setting [5] is: Homo sapiens, HT-29, HT29 cells, read-out: ERK1 PRSK MSD HT29 EC50.

Erk1, sequence (P27361 whole entry, looked up): as the sequence (P27361 whole entry) above

As for `C=CC(=O)Nc1cc(C)ccc1Nc1nc(Nc2cc(OC)nc(OC)c2)ncc1C(F)(F)F` [Compound I-96], the “ERK1 Mass Mod (%)” value in experiment [1] is “E (key: E: provided a mass modification of ≧70%; F: provided a mass modification of 31-69%; G: proived a mass modification ≦30%)”. Moreover, the EC50 in experiment [2] (setting [4]) is < 100 nM.

With `C=C(C)S(=O)(=O)Nc1cc(F)ccc1Nc1nc(Nc2cc(C(N)=O)ccc2C)ncc1C(F)(F)F` [Compound I-87, 3-((4-((4-Fluoro-2-(1-methylvinylsulfonamido)phenyl)amino)-5-(trifluoromethyl)pyrimidin-2-yl)amino)-4-methylbenzamide], the “ERK1 Mass Mod (%)” value in experiment [1] is “G (proived a mass modification ≦30%)”. Moreover, the EC50 in experiment [2] (setting [5]) is 101 to 500 nM.

For `C=CC(=O)Nc1ccccc1Nc1nc(N[C@@H]2CCC[C@H](C(=O)O)C2)ncc1Cl` (racemic) [Compound I-133, Rac-3-((4-((2-acrylamidophenyl)amino)-5-chloropyrimidin-2-yl)amino)-cis-cyclohexanecarboxylic acid], the “ERK1 Mass Mod (%)” value in experiment [1] was “E (provided a mass modification of ≧70%)”. The EC50 in experiment [2] (setting [5]) was > 1000 nM.

Turning to `C=CC(=O)Nc1cc(C)ccc1Nc1nc(Nc2cc(C(C)=O)ccc2C)ncc1C(F)(F)F` [Compound I-84, N-(2-((2-((5-Acetyl-2-methylphenyl)amino)-5-(trifluoromethyl)pyrimidin-4-yl)amino)-5-methylphenyl)acrylamide], in experiment [1], the “ERK1 Mass Mod (%)” value is “E (key: E: provided a mass modification of ≧70%; F: provided a mass modification of 31-69%; G: proived a mass modification ≦30%)”. In addition, in experiment [2] (setting [4]), the EC50 is 101 to 500 nM.

Consider `C=CC(=O)Nc1ccccc1Nc1nc(N[C@H]2CC[C@@H](O)CC2)ncc1C(F)(F)F` [Compound I-109, N-(2-((2-(cis-(4-hydroxycyclohexyl)amino)-5-(trifluoromethyl)pyrimidin-4-yl)amino)phenyl) acrylamide], for which the “ERK1 Mass Mod (%)” value in experiment [1] is listed as “E (provided a mass modification of ≧70%)”. In addition, in experiment [2] (HT29 cells, read-out: ERK1 PRSK MSD HT29 EC50), the EC50 was > 1000 nM.

In the case of `C=CC(=O)Nc1ccccc1Nc1nc(Nc2cncc(C(N)=O)c2)ncc1C(F)(F)F` [Compound I-63, 5-((4-((2-Acrylamidophenyl)amino)-5-(trifluoromethyl)pyrimidin-2-yl)amino)nicotinamide], the “ERK1 Mass Mod (%)” value in experiment [1] was “E (provided a mass modification of ≧70%)”. The 50% effective concentration (EC50) in experiment [2] (setting [5]) is 101 to 500 nM.

Regarding `C=CC(=O)Nc1ccccc1Nc1nc(N[C@H]2CC[C@H](O)CC2)ncc1Cl` [Compound I-101], the “ERK1 Mass Mod (%)” value in experiment [1] was “E (provided a mass modification of ≧70%)”. For the same compound, the EC50 in experiment [2] (setting [5]) is 101 to 500 nM.

As for `C=CC(=O)Nc1cc(OC)ccc1Oc1nc(Nc2ccc(N3CCC[C@@H]3C(N)=O)cc2OC)ncc1C(N)=O` [Compound I-262, (R)-4-(2-acrylamido-4-methoxyphenoxy)-2-((4-(2-carbamoylpyrrolidin-1-yl)-2-methoxyphenyl)amino)pyrimidine-5-carboxamide], the “ERK1 Mass Mod (%)” value in experiment [1] is “F (provided a mass modification of 31-69%)”. Moreover, in experiment [3], the IC50 is > 1000 nM.

Take `C=CC(=O)Nc1ccccc1Nc1nc(N[C@H]2CCC[C@@H](C(N)=O)C2)ncc1C(F)(F)F` [Compound I-118, (1R,3S)-3-((4-((2-acrylamidophenyl)amino)-5-(trifluoromethyl)pyrimidin-2-yl)amino)cyclohexanecarboxamide]: the “ERK1 Mass Mod (%)” value in experiment [1] is “E (provided a mass modification of ≧70%)”. Also, the IC50 in experiment [3] was < 100 nM.

As for `C=CC(=O)Nc1ccccc1Nc1nc(Nc2cc(C(N)=O)ccc2OC)ncc1C(F)(F)F` [Compound I-70, 3-((4-((2-Acrylamidophenyl)amino)-5-(trifluoromethyl)pyrimidin-2-yl)amino)-4-methoxybenzamide], the “ERK1 Mass Mod (%)” value in experiment [1] was “E (provided a mass modification of ≧70%)”. In experiment [3], the IC50 was < 100 nM.

Turning to `C=CC(=O)N(C)c1ccccc1Nc1nc(Nc2cc(C(=O)NOCCO)ccc2C#N)ncc1Cl` [Compound I-204, 3-((5-chloro-4-((2-(N-methylacrylamido)phenyl)amino)pyrimidin-2-yl)amino)-4-cyano-N-(2-hydroxyethoxy)benzamide], in experiment [1], the “ERK1 Mass Mod (%)” value was “F (provided a mass modification of 31-69%)”. In experiment [3], the IC50 is > 1000 nM.

In the case of `C=CC(=O)Nc1cc(OC)ccc1Nc1nc(Nc2ccc(N3CC[C@H](O)C3)cc2C#N)ncc1Cl` [Compound I-165, (S)—N-(2-((5-chloro-2-((2-cyano-4-(3-hydroxypyrrolidin-1-yl)phenyl)amino)pyrimidin-4-yl)amino)-5-methoxyphenyl)acrylamide], the “ERK1 Mass Mod (%)” value in experiment [1] is “F (provided a mass modification of 31-69%)”. In experiment [3], the 50% inhibitory concentration (IC50) is > 1000 nM.

Take `C=CC(=O)Nc1ccccc1Nc1nc(Nc2cc(NCCOC)nc(OC)c2)ncc1C(F)(F)F` [Compound I-286, N-(2-((2-((2-Methoxy-6-((2-methoxyethyl)amino)pyridin-4-yl)amino)-5-(trifluoromethyl)pyrimidin-4-yl)amino)phenyl)acrylamide]: in experiment [1], the “ERK1 Mass Mod (%)” value is reported as “E (provided a mass modification of ≧70%)”. In addition, the IC50 in experiment [3] is < 100 nM.

Regarding `N#CNC(=O)c1ccccc1Nc1nc(N[C@H]2CCCN(C(=O)CO)C2)ncc1C(F)(F)F` [Compound I-26, (S)—N-Cyano-2-((2-((1-(2-hydroxyacetyl)piperidin-3-yl)amino)-5-(trifluoromethyl)pyrimidin-4-yl)amino)benzamide], the “ERK1 Mass Mod (%)” value in experiment [1] is on record as “G (proived a mass modification ≦30%)”. For the same compound, in experiment [3], the IC50 is > 1000 nM.

`C=CC(=O)N[C@@H]1CCCC[C@H]1Nc1nc(Nc2cc(C(=O)NOC)ccc2C)ncc1Cl` [Compound I-190, 3-((4-(((1R,2R)-2-acrylamidocyclohexyl)amino)-5-chloropyrimidin-2-yl)amino)-N-methoxy-4-methylbenzamide]: the “ERK1 Mass Mod (%)” value in experiment [1] is “F (provided a mass modification of 31-69%)”. Besides, the IC50 in experiment [3] was > 1000 nM.

On to `C=CC(=O)Nc1ccccc1Nc1nc(Nc2ccc(N3CCN(C(C)=O)CC3)cc2OC)ncc1F` [Compound I-153, N-(2-((2-((4-(4-acetylpiperazin-1-yl)-2-methoxyphenyl)amino)-5-fluoropyrimidin-4-yl)amino)phenyl)acrylamide], for which, in experiment [1], the “ERK1 Mass Mod (%)” value is reported as “F (provided a mass modification of 31-69%)”. In experiment [3], the IC50 was > 1000 nM.

As to `Cc1ccc(C(N)=O)cc1Nc1ncc(Cl)c(Nc2ccccc2NC(=O)/C=C/CN(C)C)n1` [Compound I-218, (E)-3-((5-chloro-4-((2-(4-(dimethylamino)but-2-enamido)phenyl)amino)pyrimidin-2-yl)amino)-4-methylbenzamide], the “ERK1 Mass Mod (%)” value in experiment [1] is “G (proived a mass modification ≦30%)”. In addition, the IC50 in experiment [3] was > 1000 nM.

In the case of `C=CC(=O)N[C@@H]1CCCC[C@@H]1Nc1nc(Nc2cc(C(N)=O)ccc2C)ncc1Cl` [Compound I-199, 3-((4-(((1S,2R)-2-acrylamidocyclohexyl)amino)-5-chloropyrimidin-2-yl)amino)-4-methylbenzamide], the “ERK1 Mass Mod (%)” value in experiment [1] was “G (proived a mass modification ≦30%)”. Besides, the IC50 in experiment [3] is > 1000 nM.

On to `C=CC(=O)Nc1cc(C)ccc1Nc1nc(Nc2nc(O)ncc2Cl)ncc1C(F)(F)F` [Compound I-363, N-(2-((2-((5-chloro-2-hydroxypyrimidin-4-yl)amino)-5-(trifluoromethyl)pyrimidin-4-yl)amino)-5-methylphenyl)acrylamide], for which, in experiment [1], the “ERK1 Mass Mod (%)” value is recorded as “E (provided a mass modification of ≧70%)”. For the same compound, the IC50 in experiment [3] is > 1000 nM.

Regarding `C=CC(=O)Nc1ccccc1Nc1nc(NC2CCN(S(C)(=O)=O)CC2)ncc1C(F)(F)F` [Compound I-13, N-(2-((2-((1-(methylsulfonyl)piperidin-4-yl)amino)-5-(trifluoromethyl)pyrimidin-4-yl)amino)phenyl)acrylamide], the “ERK1 Mass Mod (%)” value in experiment [1] is on record as “E (provided a mass modification of ≧70%)”. Moreover, the IC50 in experiment [3] is < 100 nM.

Consider `C=CC(=O)Nc1ccccc1Nc1nc(N[C@H]2CCCN(C(=O)C(C)C)C2)ncc1Cl` [Compound I-137, (S)—N-(2-((5-chloro-2-((1-isobutyrylpiperidin-3-yl)amino)pyrimidin-4-yl)amino)phenyl)acrylamide], for which the “ERK1 Mass Mod (%)” value in experiment [1] is recorded as “E (provided a mass modification of ≧70%)”. For the same compound, in experiment [3], the IC50 is < 100 nM.

Take `C=CC(=O)Nc1cc(OC)ccc1Nc1nc(N[C@H]2CCCN(C(=O)CO)C2)ncc1C(F)(F)F` [Compound I-64, (S)—N-(2-((2-((1-(2-Hydroxyacetyl)piperidin-3-yl)amino)-5-(trifluoromethyl)pyrimidin-4-yl)amino)-5-methoxyphenyl)acrylamide]: the “ERK1 Mass Mod (%)” value in experiment [1] is “E (provided a mass modification of ≧70%)”. For the same compound, the IC50 in experiment [3] was < 100 nM.
